In patent publication US20240116892A1, “HETEROCYCLIC AMIDE AND UREA COMPOUNDS AS JAK2 INHIBITORS” (Ajax Therapeutics, Inc., priority 2022, published 2024) one finds Kd data, which are given here for seven compounds.

A value given as a limit tells only on which side of the number the result lay.

This assay concerns the target JAK2 (JH1 domain-catalytic, Y1007F, Y1008F) kinase (Homo sapiens (Human), UniProt O60674, Y1007F/Y1008F). The assay is described as follows: JAK2 JH1 Domain Binding Assay. The settings on record: qPCR readout. An outline of the steps: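 Competitive binding format: test compound, DNA-tagged JAK2 JH1 (Y1007F/Y1008F; HEK293-expressed NFkB fusion) and ligand-coated magnetic beads incubated 1 h at room temperature. Kinase retained on beads released with 0.5 μmol/L non-biotinylated ligand, then measured by qPCR.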
In general terms: Real-time PCR tracks product formation cycle by cycle.

Sequence of JAK2 (JH1 domain-catalytic, Y1007F, Y1008F) kinase (O60674 849-1124 Y1007F/Y1008F): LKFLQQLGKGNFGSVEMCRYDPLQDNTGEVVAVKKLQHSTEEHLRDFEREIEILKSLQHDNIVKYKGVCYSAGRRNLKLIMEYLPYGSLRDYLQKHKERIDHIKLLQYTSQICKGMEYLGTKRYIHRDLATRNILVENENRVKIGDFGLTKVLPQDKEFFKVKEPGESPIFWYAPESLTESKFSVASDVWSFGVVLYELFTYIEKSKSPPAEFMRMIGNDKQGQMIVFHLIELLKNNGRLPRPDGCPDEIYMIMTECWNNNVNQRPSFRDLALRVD

As to `CNc1n[nH]c2ncc(N3CC[C@H](N(C)C(=O)Nc4cc(C(F)(F)F)cn(C)c4=O)[C@H](F)C3)cc12` [Example I-97-b, 1-((3R,4S)-3-fluoro-1-(3-(methylamino)-1H-pyrazolo[3,4-b]pyridin-5-yl)piperidin-4-yl)-1-methyl-3-(1-methyl-2-oxo-5-(trifluoromethyl)-1,2-dihydropyridin-3-yl)urea], the Kd was less than 10 nM.
As for `Cc1cc(C(F)(F)F)cc(NC(=O)N(C)[C@H]2CCN(c3cnc4[nH]ncc4c3)C[C@@H]2F)n1` [Example I-178, 1-((35,4S)-3-fluoro-1-(1H-pyrazolo[3,4-b]pyridin-5-yl)piperidin-4-yl)-1-methyl-3-(6-methyl-4-(trifluoromethyl)pyridin-2-yl)urea], the figure is less than 10 nM.
As for `CC1CN(C(=O)Nc2cc(C(F)(F)F)cn(C)c2=O)C2(CCN(c3cnc4[nH]cc(F)c4n3)CC2)C1` (single isomer, unassigned) [Example I-54-b], the figure is 50 to 1000 nM; as for `CN(C(=O)Nc1cc(C(F)(F)F)cn(C)c1=O)[C@H]1[C@@H]2CC[C@H]1CN(c1cnc3[nH]ccc3n1)C2` [Example I-79, 1-(3-(5H-pyrrolo[2,3-b]pyrazin-2-yl)-3-azabicyclo[3.2.1]octan-8-yl)-1-methyl-3-(1-methyl-2-oxo-5-(trifluoromethyl)-1,2-dihydropyridin-3-yl)urea], 10 to 50 nM; as for `Cc1n[nH]c2ncc(N3CCC(N(C)C(=O)Nc4cc(C(F)(F)F)cn(C)c4=O)C(F)(F)C3)cc12` (single isomer, unassigned) [Example I-36-a, (R)- or (S)-1-(3,3-difluoro-1-(3-methyl-1H-pyrazolo[3,4-b]pyridin-5-yl)piperidin-4-yl)-1-methyl-3-(1-methyl-2-oxo-5-(trifluoromethyl)-1,2-dihydropyridin-3-yl)urea], less than 10 nM.
Under `CN(C(=O)Nc1cc(C(F)(F)F)cn(C)c1=O)[C@H]1CCN(c2cnccn2)CC1(F)F` (single isomer, unassigned) [Example I-22-b] stands 10 to 50 nM.
The compound `CC(=O)N1CCC(c2n[nH]c3ncc(N4CC[C@H](N(C)C(=O)Nc5cc(C(F)(F)F)cn(C)c5=O)C(F)(F)C4)cc23)CC1` (single isomer, unassigned) [Example I-123-b] showed a Kd of less than 10 nM.

The term Kd denotes the equilibrium constant for the complex coming apart.
